The values below come from paper PMC5928083, “Structural basis for energy transduction by respiratory alternative complex III” (Nature Communications, 2018).

The target of the experiment is T1, ACIII (alternative complex III) (Rhodothermus marinus, UniProt D0MDD6).
T1 construct: gene Rmar_0223; native multi-subunit membrane complex purified from R. marinus membranes in DDM; ActB Tat signal peptide (74 residues) absent; one further unidentified subunit; with Quinol:cytochrome c oxidoreductase pentaheme cytochrome subunit (alternative complex III subunit ActA); Quinol:cytochrome c oxidoreductase iron-sulfur protein (alternative complex III subunit ActB); Quinol:cytochrome c oxidoreductase membrane protein (alternative complex III subunit ActD); Quinol:cytochrome c oxidoreductase monoheme cytochrome subunit (alternative complex III subunit ActE); Alternative complex III subunit ActG; Hypothetical protein Rmar_1979 (ActH)
In words: isothermal titration calorimetry. The note with it: read-out: log Ka (converted). The experiment is classed as binding.

For the compound `CC1=C(C)C(=O)c2ccccc2C1=O` [2,3-dimethyl-1,4-naphthoquinone], the Kd is 316 nM.
